According to patent publication US9260481B2, “Peptide derivatives as antibiotics” (priority 2011, dated 2016):
≈ marks a conversion by molar mass, not a printed value. Numbered stars: 1 amine (or outer) side, 2 acyl side, 3 side chain; on linkers, the order of the positions; unused ones are H or OH. Square brackets hold non-standard residues; d marks the D form. Peptide text beside a SMILES is read from it. * marks the point of attachment. ξ: configuration not given here. X1 = NCC(O)CCC(N[*:1])C(=O)[*:2]; ΔZArg = N=C(N)NCC/C=C(\N)C(=O)O; ξDab(3-OH) = NCC(O)C(N)C(=O)O; Orn = NCCC[CH](N)C(=O)O; NH(CH2)4NH2 = NCCCCN*

What was measured:
[1] = tested on: Bacteroides fragilis; test: microbe, parasite or virus in culture
Method: (§1) The minimal inhibitory concentrations (MIC) were determined according to the Clinical and Laboratory Standards Institute (CLSI) conditions guidelines detailed in Table 7. Assays were performed in triplicate.
(§2) Preparation of Inocula. Five to 10 well-isolated colonies were picked and resuspended in 3 ml sterile saline. The inoculum was re-suspended by vigorous shaking on a vortex mixer for 15 s. Turbidity was adjusted to McFarland standard 0.5 ([…]). The inoculum was further diluted in the appropriate media (Table 7) to give a final inoculum in each well of ˜2-8×10^5 CFU/ml.
(§3) Addition of Test Article. Stock solutions of Odilomycin A or comparator were diluted in the appropriate media to give a maximum starting concentration of 50 μg/mL in the assay. 50 μL of medium was dispensed into each well in columns two to 12 of a 96 well plate. 100 μL of the appropriate test compound solution (100 μg/mL) was dispensed into each well in column one. In the case of M. catarrhalis, M. haemolytica and P. multocida these values were doubled (a final assay volume of 200 μL was used). […] Columns 11 and 12 served as positive (no drug or test article, inoculum added), and negative (no drug, test article, or inoculum added) growth controls respectively.
(§4) Addition of Bacterial Strains. 50 μL of each inoculum suspension was added to the appropriate wells, resulting in a final volume of 100 μL consisting of 50 μL diluted compound or diluents, and 50 μL of inoculum or broth alone.

[2] = tested on: Staphylococcus aureus; test: microbe, parasite or virus in culture; conditions: for Antibacterial activity (MIC): unit not given in table (MICs in μg/mL)
Method: as §1, §2, §3, §4

[3] = tested on: P. aeruginosa ATCC 27853; test: Bacterial killing curves (time-to-kill); assay type: cell-based, Pseudomonas aeruginosa; conditions: growing P. aeruginosa ATCC 27853, at four-fold the MIC
Method: (§5) Bacterial killing curves were carried out by inoculating S. aureus ATCC 13709 and P. aeruginosa ATCC 27853 with Odilomycin A concentration equal to four-fold the MIC. […] S. aureus and P. aeruginosa inoculi were prepared from colonies grown overnight in MHB. Antibiotics concentrations in the flask were adjusted in MHB according to the desired concentration. Culture tubes containing 10 mL were inoculated with S. aureus or P. aeruginosa at an approximate inoculum of 10^5 CFU/mL. Samples were drawn and bacteria were counted at 0, 1, 2, 3, 4, 6 and 24 h of incubation at 37° C. Thus, after vortexing the culture tubes, two 50 μL samples were removed and serially diluted with MHB. After each dilution step, 20 μL was plated onto LB agar plates, which were incubated for 24 h at 37° C. Afterwards the colonies were counted and back-extrapolated to the original volume to determine the initial concentration (CFU/mL).

[4] = tested on: S. aureus ATCC 25923; assay type: cell-based, Staphylococcus aureus; conditions: ATCC 25923
Excerpt: (§6) Vancomycin, rifampicin, kanamycin, gentamicin, ampicillin, ciprofloxacin and tetracycline (Sigma-Aldrich) were provided as standard powders by the manufacturers.

[5] = tested on: P. aeruginosa ATCC 27853; test: Acute lethal infection in mice; assay type: in vivo, BALB/c mice; conditions: mice, P. aeruginosa 8.6 log10 CFU/mouse IP, n=6
Method: Female BALB/c mice ordered from Harlan Laboratories (Indianapolis, Ind.) weighing 19-21 g were used in experiments of acute lethal infection. Mice were fully immunocompetent. Infection was induced by inoculating intraperitoneally in mice a bacterial suspension of P. aeruginosa ATCC 27853. The bacterial challenges (8.6 log10 CFU/mouse) were given suspended in 0.1 mL sterile saline. Treatments were administered once 1 hour after challenge via IV injection (Tobramycin was administered via IP injection immediately after challenge) (Table 13). Mortality was tracked out to 2 days post challenge. Animals that remained surviving at the end of the study were humanely euthanized.

[6] = tested on: K. pneumoniae ATCC 43816; assay type: cell-based, Klebsiella pneumoniae; conditions: ATCC 43816
Excerpt: as §6

[7] = tested on: S. aureus ATCC 13709; test: Bacterial killing curves (time-to-kill); assay type: cell-based, Staphylococcus aureus; conditions: growing S. aureus ATCC 13709, at four-fold the MIC
Method: as §5

[8] = tested on: Streptococcus pneumonia
Method: as §1, §2, §3, §4

[9] = tested on: Acinetobacter baumannii
Method: as §1, §2, §3, §4

[10] = tested on: S. aureus ATCC 13709; test: MBC in presence of human serum; assay type: cell-based, Staphylococcus aureus; conditions: for MBC S. aureus ATCC 13709: unit not given (Table 10: μg/mL)
Method: Minimal bactericidal concentrations (MBCs) were established by extending the MIC procedure to the evaluation of bactericidal activity. After 24 hours, 10 μL were drawn from the wells, serially diluted and then spotted onto suitable agar plates. The plates were incubated at 37° C. overnight. […] All the experiments were done in triplicate.
MBCs were also determined in presence of 50% and 95% (v/v) of human serum to assess protein binding.

[11] = Odilomycin A 7.5 mg/kg IV at 1 hr
[12] = Odilomycin A 15 mg/kg IV at 1 hr

N=C(N)NCC/C=C(\NC(=O)C(CCC(O)CN)NC(=O)C(Cc1cnc[nH]1)NC(=O)C1CCCN1C(=O)C(CCCN)NC(=O)CNC(=O)C(NC(=O)C(NC(=O)C(N)CCCCN)C(O)CN)C(O)CN)C(=O)NC(CCC(O)CN)C(=O)NCCCCN (stereo not drawn) [Odilomycin A, Lys-(3-hydroxy-2,4-diaminobutanoic acid)-(3-hydroxy-2,4-diaminobutanoic acid)-Gly-Ornithine-Pro-His-(5-hydroxylysine)-(2,3-dehydroarginine)-(5-hydroxylysine)-(1,4-diaminobutane)] (H-K[ξDab(3-OH)][ξDab(3-OH)]G[Orn]PH[X1][ΔZArg][X1]-{NH(CH2)4NH2}; configuration not given here)
MIC [1]: 1.56 µg/mL (≈ 1.2 µM) | MICs [2]: < 1 µg/mL | Antibacterial activity (MIC) ([2]; S. aureus multiresistant clinical isolate 16666): <0.19 | Antibacterial activity (MIC) ([2]; S. aureus multiresistant clinical isolate 20364): 0.78 | Antibacterial activity (MIC) ([2]; S. aureus multiresistant clinical isolate 20681): 1.56 | Antibacterial activity (MIC) ([2]; S. aureus multiresistant clinical isolate 21840): 0.39 | Antibacterial activity (MIC) ([2]; S. aureus multiresistant clinical isolate 23305): 0.78 | Time to kill 100% of bacteria [3]: ≤ 2 h | MIC antibiotic alone [4]: 0.39 µg/mL (≈ 0.301 µM) | Animal deaths Day 0 [5, 11]: 0 | Animal deaths Day 1 [5, 11]: 4 | Animal deaths Day 2 [5, 11]: 1 | Animal deaths Day 0 [5, 12]: 0 | Animal deaths Day 2 [5, 12]: 4 | MIC antibiotic alone [6]: 25 µg/mL (≈ 19.3 µM) | Time to kill 100% of bacteria [7]: ≤ 3 h | MIC [8]: >50.0 µg/mL | antibacterial activity ([8]; S. pneumoniae): Weak or no antibacterial activity | MIC [9]: 6.25 µg/mL (≈ 4.82 µM) | MICs [9]: < 10 µg/mL | effect of serum proteins on antibacterial activity ([10]; 50% and 95% (v/v) human serum, S. aureus ATCC 13709): weakly affected | MBC S. aureus ATCC 13709 ([10]; Serum 0 % (v/v)): 0.78 | MBC S. aureus ATCC 13709 ([10]; human serum 50 % (v/v)): 1.56 | MBC S. aureus ATCC 13709 ([10]; human serum 95 % (v/v)): 1.56
